Source: ChEMBL document CHEMBL3301361, “Experimental in vitro DMPK and physicochemical data on a set of publicly disclosed compounds”

experiment: physchem; conditions: octan-1-ol/water, pH 7.4, LogD7.4

SMILES	logD
C#CCN(c1cc(Nc2ccc(OCC(O)CN(C)C)cc2)ncn1)c1cc(Cl)ccc1Cl (stereo unspecified)	2.8
CN(C)CC(O)COc1ccc(Nc2nccc(Nc3cc(Cl)ccc3Cl)n2)cc1 (stereo unspecified)	2.9
O=C(O)CC[C@@H]1c2ccccc2C[C@H]1NC(=O)c1cc2sc(Cl)c(Cl)c2[nH]1	2.84
Brc1cc(Br)cc(COC[C@H](c2ccccc2)N2CCNCC2)c1	2.8
CC(C)C(NC(=O)Cn1c(C2CCCCC2)ncc(NC(=O)OCc2ccccc2)c1=O)C(=O)C(F)(F)F (stereo unspecified)	2.87
O=S(=O)(Cc1ccccc1)NCC(c1ccccc1)N1CCCCCC1 (stereo unspecified)	2.83
O=S(=O)(NCC(c1ccccc1)N1CCCCCC1)c1ccc(F)c(F)c1 (stereo unspecified)	2.84
N#Cc1cc(S(=O)(=O)NCC(c2ccccc2)N2CCCCCC2)ccc1F (stereo unspecified)	2.71
N#Cc1ccc(S(=O)(=O)NCC(c2ccccc2)N2CCCCCC2)cc1 (stereo unspecified)	2.86
Cc1cc2n[nH]c(=O)n2c2cc(-c3ccc(C(=O)N4CCOCC4)cc3)ccc12	2.77
Cc1cc2n[nH]c(=O)n2c2cc(-c3ccc(CO)cc3)ccc12	2.86
Cc1cc2n[nH]c(=O)n2c2cc(-c3cccnc3)ccc12	2.72
Cc1c(-c2ccc(O)cc2)c(=O)oc2cc(O)ccc12	2.8
CC1=C(C2=C(C)C(=O)c3c(cc(O)c(O)c3Cc3ccccc3)C2=O)C(=O)c2cc(O)c(O)c(Cc3ccccc3)c2C1=O	2.73
O=C(COCc1ccncc1)N1CCC(c2ccc(Cl)cc2)CC1	2.74
O=C(COCc1ccncc1)N1CCC(c2ccc(F)cc2Cl)CC1	2.7
CC1(c2ccc(Cl)cc2)CCN(C(=O)COCc2ccncc2)CC1	2.79
COc1ccc(-c2coc3cc(O)cc(O)c3c2=O)cc1OC	2.8
COc1ccc(-c2cc(=O)c3ccccc3[nH]2)cc1	2.71
CC(O)(C(=O)Nc1ccc(S(=O)(=O)c2ccc(O)cc2)cc1)C(F)(F)F (stereo unspecified)	2.78
Cc1sc2ncnc(SCC(=O)N3CCN(C(=O)c4ccco4)CC3)c2c1C	2.7
Cc1ccc(S(=O)(=O)Nc2ccc(/C=C/C(=O)Nc3ccccc3N)cc2)cc1	2.82

SMILES	logD
CSc1ncccc1C(=O)NCc1ccc(C)cc1	2.71
N#Cc1cccc(COc2ccc3c(c2)OCCC3=O)c1	2.8
CC(=O)N1CCOc2cc(COc3ccccc3)cnc21	2.8
CC[C@H](NC(=O)c1c([S+](C)[O-])c(-c2ccccc2)nc2c(F)cccc12)c1ccccc1 (stereo partly specified)	2.84
CC[C@H](NC(=O)c1c([S+](C)[O-])c(-c2ccccc2)nc2cc(CN(C)C)ccc12)c1ccccc1 (stereo partly specified)	2.75
Nc1ccc2c(c1)C(=O)c1ccccc1-2	2.9
c1ccc(-c2cn3ccccc3n2)cc1	2.9
O=c1oc2c(O)cccc2cc1-c1ccc(O)cc1	2.8
COc1cc(-c2c(F)ccc3c(N)c(C(=O)NC4CC4)nnc23)c(OC)nn1	2.75
CN(CC[C@@H](Oc1ccc(-c2ccccc2)cc1)c1ccc(F)cc1)CC(=O)O	2.86
CS(=O)(=O)c1ccc(CC(=O)N(C2CC2)C2CCN(CCC(c3ccccc3)c3ccccc3)CC2)cc1	2.89
CCC(c1nc2ccsc2c(=O)n1Cc1ccccc1)N(CCCN)C(=O)c1ccc(C(C)C)cc1 (stereo unspecified)	2.72
COCCOc1ccc(C(=O)Nc2cc(NC(=O)c3cccc(N(C)C)c3)ccc2C)cc1	2.74
O=C(Nc1ccccc1)c1cc(Cl)ccc1O	2.9
O=c1oc2cc(O)ccc2cc1-c1ccc(O)cc1	2.9
Cc1cccc(Cn2ccn3c(=O)cc(N4CCOCC4)nc23)c1	2.8
CCN(C(=O)Cc1ccc(S(C)(=O)=O)cc1)C1CCN(CCC(c2ccccc2)c2ccc(C#N)cc2)CC1 (stereo unspecified)	2.76
O=C(NCc1ccccn1)c1ccc(Oc2ccccc2)cc1	2.7
CCCCCSc1nc2nc(N)sc2c(=O)[nH]1	2.86
O=C(Nc1cccc(Cl)c1)N1CCN(C[C@@H]2CCCN(C3CC3)C2)CC1	2.74
Cc1ccc(-c2c[nH]cn2)cc1NC(=O)c1ccc(OCc2ccccn2)cc1	2.81
Cc1ccc(-c2nccn2C)cc1NC(=O)c1ccc(OCc2ccccn2)cc1	2.83

SMILES	logD
Cc1ccc(-c2[nH]cnc2C)cc1NC(=O)c1ccc(OCc2ccccn2)cc1	2.87
Cc1ccc(-c2cn(C)c(C)n2)cc1NC(=O)c1ccc(OCc2ccccn2)cc1	2.71
Clc1ccccc1CNC[C@H]1CC[C@H](CNCc2ccccc2Cl)CC1	2.74
C[C@@H]1CN(c2noc(C(F)F)n2)CCN1c1ncc(OCc2ccncc2C#N)cn1	2.85
CCn1c(=O)c2c(-c3cncn3C)n(Cc3ccnc4ccc(Cl)cc34)nc2n(CC2CC2)c1=O	2.87
Cc1cc(Nc2nc(NCc3ccccn3)ncc2Br)n[nH]1	2.8
Nc1ncc(-c2ccc(S(=O)(=O)N3CCOCC3)cc2)nc1C(=O)Nc1cccnc1	2.83
CCc1cc(O)c(Oc2ccc(C(N)=O)cc2F)cc1F	2.87
CC(C)Cn1c(=O)n(C)c(=O)c2c(C(=O)N3CC[C@@H](O)C3)c(Oc3cccc4ccccc34)sc21	2.87
CNS(=O)(=O)c1ccc2c(C(=O)NC[C@@H](O)CN3CCC(Oc4ccc(Cl)c(Cl)c4)CC3)c[nH]c(=O)c2c1	2.77
Cc1c(Cl)ccc(OC2CCN(C[C@H](O)CNC(=O)c3c[nH]c(=O)c4cc(S(C)(=O)=O)ccc34)CC2)c1Cl	2.83
CS(=O)(=O)c1ccc(C(=O)NC[C@@H](O)CN2CCC(Oc3ccc(Cl)c(Cl)c3)CC2)s1	2.86
Nc1cccc(CCc2ccc3cc[nH]c3c2)n1	2.8
COc1cc(N2CCN(C)CC2)c2[nH]c(C(=O)Nc3ccc(N4CCOCC4)cc3)cc(=O)c2c1	2.7
CN1CCN(c2cc(F)cc3c(=O)cc(C(=O)Nc4ccc(N5CCOCC5)cc4)[nH]c23)CC1	2.7
O=S(=O)(Nc1ncc(Cl)s1)c1cc(F)c(Oc2ccc(F)cc2-c2cn[nH]c2)cc1F	2.7
NC1(C(=O)NC(CCCN2CCOCC2)c2ccc(Cl)cc2)CCN(c2ncnc3[nH]ccc23)CC1 (stereo unspecified)	2.7
CC(NC(=O)C1(N)CCN(c2ncnc3[nH]ccc23)CC1)c1ccc(Cl)cc1 (stereo unspecified)	2.7
COCCC(=O)Nc1ccc(Nc2ncc3cc(-c4ccncc4)ccc3n2)cc1	2.78
CC(=O)N(C)c1ccc(Nc2ncc3cc(-c4ccncc4)ccc3n2)cc1	2.88
COc1cc(-c2ccncc2)cc2cnc(Nc3ccc([C@@H](C)NC(C)=O)cc3)nc12	2.73
COc1ccc(-c2ccc3c(N4CCOC[C@@H]4C)nc(N4CCOC[C@@H]4C)nc3n2)cc1C(N)=O	2.82

SMILES	logD
O=C1C2=Nc3ccccc3CN2c2ccccc21	2.71
Cn1c(N)nc(CCc2ccc3ccccc3c2)cc1=O	2.7
NS(=O)(=O)c1ccc(Nc2nccc(Nc3c(Cl)ccc4c3OCO4)n2)cc1	2.7
CCOC(=O)[C@H](Cc1ccc([N+](=O)[O-])cc1)NC(=O)c1ccccc1	2.79
CN1CCc2c1nc1ccccc1c2NC(=O)Cc1ccccc1	2.8
COc1ccc(OC(F)(F)F)cc1CN[C@H]1CCCN[C@H]1c1ccccc1	2.9
CC(C)C(NC(=O)Cn1c(-c2ccccc2)ccc(NC(=O)NCc2cccnc2)c1=O)C(=O)C(F)(F)F (stereo unspecified)	2.84
CNC(=O)C1(N2CCCCC2=O)CCN(CC[C@H](CN(C)C(=O)c2c(OC)c(C#N)cc3ccccc23)c2ccc(Cl)c(Cl)c2)CC1	2.78
CCCc1c(OCc2ccc(-c3nn[nH]n3)cc2OC)ccc(C(C)=O)c1O	2.8
Cc1ccc(NC(=O)c2cccc(N(C)C)c2)cc1NC(=O)c1ccc(OCc2ccccn2)cc1	2.83
CC(C)N1CCN(C(=O)NCc2ccc(Cl)c(Cl)c2)CC1	2.75
COc1cc(N2CC[C@@H](N(C)C)C2)c2[nH]c(C(=O)Nc3ccc(N4CCOCC4)cc3)cc(=O)c2c1	2.7
O=[N+]([O-])c1ccc2[nH]c(-c3ccccn3)nc2c1	2.8
C[C@@H](O)[C@@H](CO)Nc1nc(SCc2cccc(F)c2F)nc2nc(N)sc12	2.83
O=C(NC1Cc2ccccc2N(CC(=O)N2CCC(O)CC2)C1=O)c1cc2cc(Cl)sc2[nH]1 (stereo unspecified)	2.86
CC(=O)NC[C@H]1CN(c2ccc(N3Cc4cccnc4C3)c(F)c2)C(=O)O1	2.88
CCCN(CCC)C(=O)c1cccc(C(=O)N[C@@H](Cc2ccccc2)[C@H](O)CNCc2cccc(OC)c2)c1	2.7
COc1cc2ncc(C(N)=O)c(Nc3ccccc3Cl)c2cc1OC	2.89
CC(C)C[C@@H](CO)NS(=O)(=O)c1ccc(Cl)s1	2.8
Cc1ccc(S(=O)(=O)c2ccccc2)cc1	2.74
Cc1ncc(-c2nc(Nc3ccc(C(=O)N(C)C)cc3)ncc2F)n1C(C)C	2.77
Cc1ncc(-c2ccnc(Nc3ccc(C(N)=O)c(F)c3)n2)n1C(C)C	2.8

SMILES	logD
c1ccc(CNc2nc3ccccc3[nH]2)cc1	2.76
CC[C@H](C)[C@@H](CO)NS(=O)(=O)c1ccc(Cl)s1	2.7
COc1cc2ncc(C(N)=O)c(Nc3cc(F)ccc3F)c2cc1OC	2.9
O=c1oc2ccc(O)cc2cc1-c1ccc(O)cc1	2.9
COC(=O)CCCCCCC(=O)Nc1ccc2c(c1)C(=O)C(=O)c1ccccc1-2	2.9
Cc1cc(Nc2ncc(F)c(-c3cnc(C)n3C(C)C)n2)ccc1C(=O)N(C)C	2.86
CCCC(=O)Nc1ccc2c(c1)C(=O)C(=O)c1ccccc1-2	2.81
CC(C)(C)C(=O)Nc1ccc2c(c1)C(=O)C(=O)c1ccccc1-2	2.83
Cn1c(=O)c2c(-c3ccc(S(C)(=O)=O)o3)n(Cc3ccnc4ccc(Cl)cc34)nc2n(CC2CC2)c1=O	2.71
COC(=O)CCC(=O)Nc1ccc2c(c1)-c1ccccc1C(=O)C2=O	2.72
Cc1ccc(NC(=O)c2cccc(OCC(C)C)c2)cc1C(=O)Nc1cccnc1	2.81
COc1cc2ncc(C(N)=O)c(Nc3ccc(F)cc3)c2cc1OC	2.82
CCCCC(NC(=O)CC1CCN(Cc2ccn(-c3ccc(C(F)(F)F)cc3)c2)CC1)c1ccc(=O)[nH]c1 (stereo unspecified)	2.89
Nc1nonc1C(=NO)Nc1ccc(F)c(Cl)c1	2.7
C=CCNC(=O)c1cc([N+](=O)[O-])cc2c(=O)[nH]c(Nc3ccc(Cl)c(Cl)c3)nc12	2.7
CN(Cc1ccc(Cl)cc1)C(=O)C1(N)CCN(c2ncnc3[nH]ccc23)CC1	2.8
COC(=O)c1c(C)[nH]c(C)c1C(=O)c1ccccc1Cl	2.7
CN(C)CC1CCn2c(c(C3=C(c4cn(C)c5ccccc45)C(=O)NC3=O)c3ccccc32)C1 (stereo unspecified)	2.88
